Results taken from patent US20230065953A1, “NOVEL HETEROARYL-TRIAZOLE COMPOUNDS AS PESTICIDES” (Bayer Aktiengesellschaft, priority 2019, published 2023).

Tests used:
Type in all cases: in vivo
[1] = test system: Rhipicephalus microplus larvae (strain Parkhurst, resistant against synthetic pyrethroids); test: Rhipicephalus (Boophilus) microplus in-vitro contact test, larval cattle tick; conditions: 5 μg/cm^2 (=500 g/ha), after 48 hours, read-out: efficacy (larvae dead or moribund)
Protocol: Rhipicephalus (Boophilus) Microplus—In-Vitro Contact Tests Larval Cattle Tick (Strain Parkhurst, Resistant Against Synthetic Pyrethroids)
(§1) 9 mg compound is solved in 1 mL acetone and diluted with acetone to the desired concentration. 250 μL of the test solution is filled in 25 mL glass test tubes and homogeneously distributed on the inner walls by rotation and tilting on a shaking device (2 h at 30 rpm). With a compound concentration of 900 ppm, an inner surface of 44.7 cm^2 and a homogeneous distribution, a dose of 5 μg/cm^2 is achieved.
After the solvent has evaporated, each test tube is filled with 20-50 cattle tick larvae (Rhipicephalus microplus), closed with a perforated lid and incubated in a horizontal position at 85% relative humidity and 27° C. in an incubator. After 48 hours efficacy is determined. The larvae are patted on the ground of the tubes and negative geotactic behavior is recorded.
An efficacy of 100% means all larvae are dead or moribund; 0% means no larvae are dead or moribund.

[2] = test system: larvae of the banded cucumber beetle (Diabrotica balteata); test: Diabrotica balteata spray test; conditions: 168 h, 100 g/ha (=32 μg/well), wheat seeds, after 7 days, read-out: efficacy (seedling growth)
How it was run: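 Efficacy in % was read 7 days after infesting with 10-20 larvae per unit. Before infestation, 1-day-germinated wheat seedlings (5 per well) were sprayed with the active ingredient, formulated in acetone and dimethylformamide plus emulsifier and diluted with water containing emulsifier.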

[3] = test system: fall armyworm larvae (Spodoptera frugiperda); test: Spodoptera frugiperda spray test (maize leaf sections); conditions: 168 h
How it was run: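 Percent kill of Spodoptera frugiperda caterpillars read at day 7. Larvae placed on dried Zea mays leaf pieces previously sprayed with test preparation, made from acetone plus DMF and diluted with emulsifier-containing water (1000 ppm).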

[4] = test system: adult cat fleas (Ctenocephalides felis); test: Ctenocephalides felis in-vitro contact test, adult cat flea; conditions: 5 μg/cm^2 (=500 g/ha), after 48 hours
Protocol: Ctenocephalides felis—In-Vitro Contact Tests Adult Cat Flea
as §1
After the solvent has evaporated, each test tube is filled with 5-10 adult cat fleas (Ctenocephalides felis), closed with a perforated lid and incubated in a lying position at room temperature and relative humidity. After 48 hours efficacy is determined. The fleas are patted on the ground of the tubes and are incubated on a heating plate at 45-50° C. for at most 5 minutes. Immotile or uncoordinated moving fleas, which are not able to escape the heat by climbing upwards, are marked as dead or moribund.
An efficacy of 100% means all fleas are dead or moribund; 0% means no fleas are dead or moribund.

[5] = test system: green peach aphid (Myzus persicae); test: Myzus persicae oral test; conditions: 120 h
Protocol: Myzus persicae—oral test • Solvent: 100 parts by weight acetone
To produce a suitable preparation of active compound, 1 part by weight of active compound is mixed with the stated amount of solvent, and the concentrate is diluted with water to the desired concentration. 50 μL compound solution is filled in microtiter plates and 150 μL IPL41 insect medium (33%+15% sugar) is added to obtain a total volume of 200 μL per well. Afterwards the plates are sealed with parafilm through which a mixed population of the green peach aphid (Myzus persicae) can suck on the compound preparation.
(§2) After 5 days mortality in % is determined. 100% means all aphids have been killed and 0% means none of the aphids have been killed.

[6] = test system: adult unfed cat fleas (Ctenocephalides felis); test: Ctenocephalides felis oral test; conditions: 48 h
Protocol: Ctenocephalides felis—Oral Test
(§3) Solvent: dimethyl sulfoxide
To produce a suitable preparation of active compound, 10 mg of active compound are dissolved in 0.5 mL solvent, and the concentrate is diluted with cattle blood to the desired concentration.
Approximately 20 adult unfed cat fleas (Ctenocephalides felis) are placed in flea chambers. The blood chamber, sealed with parafilm on the bottom, are filled with cattle blood supplied with compound solution and placed on the gauze covered top of the flea chamber, so that the fleas are able to suck the blood. The blood chamber is heated to 37° C. whereas the flea chamber is kept at room temperature.
After 2 days mortality in % is determined. 100% means all the fleas have been killed; 0% means none of the fleas have been killed.

[7] = test system: adult flies Musca domestica strain WHO-N; test: Musca domestica test (MUSCDO surface treatment & contact assay); conditions: 24 hours after contact, read-out: efficacy (mortality); for mortality at 20 mg/m2: surface concentration 20 mg/m^2, 30 min exposure; for mortality at 4 mg/m2: surface concentration 4 mg/m^2, 30 min exposure
Protocol: Musca domestica Test (MUSCDO Surface Treatment & Contact Assay) • Solvent: Aceton+2000 ppm rapeseed oil methyl ester (RME)
(§4) In order to produce a sufficient, active ingredient containing solution it is necessary to solve the test compound in the solvent-mix (acetone at 2 mg/ml/RME 2000 ppm). This solution is pipetted onto a glazed tile and after evaporation of the acetone, adult flies of the species Musca domestica strain WHO-N are placed onto the dried surface. The exposure time is 30 minutes.
(§5) Mortality in percent (%) is determined 24 hours after contact of the insects to the treated surface. 100% mortality means that all tested insects are dead, whereas 0% means that no insect died.

[8] = test system: adult mosquitoes Aedes aegypti strain MONHEIM; test: Aedes aegypti test (AEDSAE surface treatment & contact assay); conditions: 24 hours after contact, read-out: efficacy (mortality); for mortality at 4 mg/m2: surface concentration 4 mg/m^2, 30 min exposure; for mortality at 20 mg/m2: surface concentration 20 mg/m^2, 30 min exposure
Protocol: Aedes aegypti test (AEDSAE surface treatment & contact assay) • Solvent: Aceton+2000 ppm rapeseed oil methyl ester (RME)
as §4, with “mosquitoes” for “flies”, “Aedes aegypti” for “Musca domestica”, “MONHEIM” for “WHO-N”
as §5

[9] = test system: adult engorged female ticks (Rhipicephalus microplus); test: Rhipicephalus (Boophilus) microplus injection test; conditions: 168 h, 4 μg/animal, egg deposition after 7 days, read-out: efficacy (infertile eggs)
Protocol: Rhipicephalus (Boophilus) Microplus—Injection Test
as §3
To produce a suitable preparation of active compound, 10 mg of active compound are dissolved in 0.5 mL solvent, and the concentrate is diluted with solvent to the desired concentration.
Five adult engorged female ticks (Rhipicephalus microplus) are injected with 1 μL compound solution into the abdomen. The ticks are transferred into replica plates and incubated in a climate chamber.
After 7 days egg deposition of fertile eggs is monitored. Eggs where fertility is not visible are stored in a climate chamber till hatching after about 42 days. An efficacy of 100% means all eggs are infertile; 0% means all eggs are fertile.

[10] = test system: green peach aphid (Myzus persicae); test: Myzus persicae spray test; conditions: foliar, 120 h, Chinese cabbage leaf disks, after 5 days
Protocol: Myzus persicae—Spray Test • Solvent: 78.0 parts by weight acetone • 1.5 parts by weight dimethylformamide • Emulsifier: alkylarylpolyglycol ether
To produce a suitable preparation of active compound, 1 part by weight of active compound is mixed with the stated amount of solvents and is diluted with water, containing an emulsifier concentration of 1000 ppm, to the desired concentration. Further test concentrations are prepared by dilution with emulsifier containing water.
Chinese cabbage (Brassica pekinensis) leaf disks infected with all instars of the green peach aphid (Myzus persicae), are sprayed with a preparation of the active ingredient of the desired concentration.
as §2

[11] = test system: larvae of the southern green stink bug (Nezara viridula); test: Nezara viridula spray test; conditions: in Hordeum vulgare, 96 h
How it was run: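 Mortality (%) of stink bug larvae on treated barley (Hordeum vulgare) was scored 4 days after infestation. Test solutions came from an acetone/DMF concentrate diluted with water containing 1000 ppm emulsifier and were sprayed onto plants before larvae were added.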

SMILES	pest or weed control at 5 µg/cm2 [1]	pest or weed control at 32 µg/disc, 100 g/ha [2]	mortality at 100 g/ha [3]	efficacy (fleas dead or moribund) [4]	mortality at 4 ppm [5]	mortality at 100 ppm [6]	mortality at 20 mg/m2 [7]	mortality at 4 mg/m2 [8]	mortality at 20 mg/m2 [8]	pest or weed control at 0.004 mg [9]	mortality at 100 g/ha [10]	mortality at 4 mg/m2 [7]	mortality at 500 g/ha [11]	mortality at 100 g/ha [11]
CC(NC(=O)c1cc(Cl)cc(OC(F)(F)F)c1)c1ncnn1-c1ncc(C#N)s1 (stereo not shown) [I-28]	100%	100%	100%	100%	–	–	–	–	–	–	–	–	–	–
CC(NC(=O)c1cc(C(F)F)cc(C(F)F)c1)c1ncnn1-c1ncc(C#N)s1 (stereo not shown) [I-33]	90%	100%	100%	80%	100%	100%	80 to 100%	80 to 100%	80 to 100%	100%	–	–	–	–
CC(NC(=O)c1cc(OC(F)F)cc(C2CC2)c1)c1ncnn1-c1ncc(C#N)s1 (stereo not shown) [I-35]	100%	100%	100%	–	100%	100%	–	–	–	100%	90%	–	–	–
CC(NC(=O)c1cc(OC(F)(F)F)cc(S(C)(=O)=O)c1)c1ncnn1-c1ncc(C#N)s1 (stereo not shown) [I-37]	–	100%	100%	80%	100%	100%	–	–	–	100%	–	–	–	–
C[C@H](NC(=O)c1cc(Br)cc(C(C)(F)F)c1)c1ncnn1-c1ncc(C#N)s1 [I-47]	90%	100%	100%	–	–	–	80 to 100%	80 to 100%	80 to 100%	–	90%	90 to 100%	–	–
C[C@H](NC(=O)c1cc(Cl)cc(C2(C#N)CC2)c1)c1ncnn1-c1ncc(C#N)s1 [I-52]	–	100%	100%	–	–	–	80 to 100%	–	80 to 100%	–	100%	90 to 100%	100%	–
Cc1nc([C@H](C)NC(=O)c2cc(Br)cc(C#N)c2)n(-c2ncc(C(=O)N(C)C)s2)n1 [I-70]	70%	–	–	100%	–	–	–	–	–	–	–	–	–	–
Cc1nc([C@H](C)NC(=O)c2cc(Br)cc(Br)c2)n(-c2ncc(C(=O)N(C)C)s2)n1 [I-71]	100%	100%	–	100%	–	–	–	–	–	–	–	–	–	–
Cc1nc([C@H](C)NC(=O)c2cc(Br)cc(C#N)c2)n(-c2ncc(C(=O)N(C)CC#N)s2)n1 [I-75]	90%	100%	–	90%	100%	–	–	–	–	–	–	–	–	–
Cc1nc([C@H](C)NC(=O)c2cc(Cl)cc(I)c2)n(-c2ncc(C(=O)N(C)C)s2)n1 [I-76]	100%	–	100%	80%	–	–	–	–	–	–	–	–	–	–
CC(NC(=O)c1cc(C(F)(F)F)cc(S(C)(=O)=O)c1)c1ncnn1-c1ncc(C#N)s1 (stereo not shown) [I-82]	90%	80%	100%	80%	100%	100%	–	–	–	100%	–	–	–	90%
Cc1nc([C@H](C)NC(=O)c2cc(C(F)(F)F)cc(S(C)(=O)=O)c2)n(-c2ncc(C(=O)N(C)C)s2)n1 [I-83]	–	–	–	80%	100%	100%	–	–	–	100%	–	–	–	–
Cc1nc([C@H](C)NC(=O)c2cc(C(F)(F)F)cc(S(C)(=O)=O)c2)n(-c2ncc(C(=O)N(C)CC#N)s2)n1 [I-84]	80%	100%	–	–	100%	100%	–	–	–	100%	–	–	–	100%
Cc1nc([C@H](C)NC(=O)c2cc(C(F)(F)F)cc(C(F)(F)F)c2)n(-c2ncc(C#N)s2)n1 [I-90]	–	100%	100%	–	–	–	80 to 100%	80 to 100%	–	–	90%	90 to 100%	–	–
C[C@H](NC(=O)c1cc(Br)cc(C(C)(C)F)c1)c1ncnn1-c1ncc(C#N)s1 [I-99]	–	100%	100%	–	–	–	80 to 100%	80 to 100%	80 to 100%	–	100%	90 to 100%	100%	100%
Cc1nc([C@H](C)NC(=O)c2cc(Br)cc(OC(F)(F)F)c2)n(-c2ncc(C(=O)N(C)CC3CC3)s2)n1 [I-124]	100%	100%	100%	100%	–	–	–	–	–	–	–	–	100%	100%
Cc1nc([C@H](C)NC(=O)c2cc(Br)cc(OC(F)(F)F)c2)n(-c2ncc(C(=O)N(C)C(C)C)s2)n1 [I-126]	100%	100%	100%	80%	–	–	–	–	–	–	–	–	–	–
